This note sets out measurements from ChEMBL document CHEMBL1165947, “Synthesis and antitumor activity of 2,5-bis(3'-indolyl)-furans and 3,5-bis(3'-indolyl)-isoxazoles, nortopsentin analogues” (Bioorg Med Chem, 2010).

pIC50: −log10 of the molar value.

The test concerns P388. Description: Cytotoxicity against mouse P388 cells. In kind it is functional, cell-based.

The pIC50 is −log10 of the IC50, conventionally taken in molar units. Turning to `Cn1c(-c2cn(C)c3cc(Br)ccc23)cnc1-c1cn(C)c2cc(Br)ccc12` [N-METHYL NORTOPSENTIN A], the pIC50 was 6.10.
